Results taken from US20230372382A1, “USE OF ADENOSINE DIPHOSPHATE RIBOSE FOR ADJUVANT THERAPY WITH RADIATION AND/OR ANTI-CANCER TREATMENT” (PearlsInMires Co., Ltd., priority 2021, published 2023).

Experiments:
[1] = system: Hep G2 cells; assay: Cell death by combination treatment of ADP-ribose and radiation (MTT); format: cell-based; conditions: Hep G2, 4 μM ADP-ribose in combination with 2 Gy radiation, 24 hours, P<0.001; 2 Gy alone about 82.3%
Description: (§3) 3×10^3 Brain cancer (U-87MG), lung cancer (H1975), pancreatic cancer (Aspc-1), liver cancer (Hep G2), breast cancer (MDA-MB-231), colon cancer (HCT116), and kidney cancer (Caki-1) cells were cultured in a 96-well plate for 24 hours under conditions of 37° C. and 5% CO2, treated with ADP-ribose or 2 or 5 Gy radiation alone or in combination with ADP-ribose and 2 Gy radiation, and cultured for 24 hours under conditions of 37° C. and 5% CO2 again. Then, 10 μl of 3-(4,5-dimethylthiazol-2-yl)-2,5-diphenyltetrazolium bromide reagent was added to each well and reacted for 1 hour. After the reaction was completed, the reagent was removed, 200 μl of dimethyl sulfoxide was added to each well, and the absorbance was measured to compare the degree of cell death.
3×10^3 Hep G2 cells were cultured in a 96-well plate for 24 hours under conditions of 37° C. and 5% CO2, treated with 4 μM of ADP-ribose and 2 or 5 Gy dose of radiation individually or in combination, and cultured for 24 hours under conditions of 37° C. and 5% CO2 again. Then, 10 μl of 3-(4,5-dimethylthiazol-2-yl)-2,5-diphenyltetrazolium bromide reagent was added to each well and reacted for 1 hour. After the reaction was completed, the reagent was removed, 200 μl of dimethyl sulfoxide was added to each well, and the absorbance was measured to confirm cell viability.

[2] = system: Caki-1 cells; assay: as above; format: cell-based; conditions: Caki-1, 16 μM ADP-ribose in combination with 2 Gy radiation, 24 hours, P<0.001; 2 Gy alone about 94.7%
Description: 3×10^3 Caki-1 cells were cultured in a 96-well plate for 24 hours under conditions of 37° C. and 5% CO2, treated with 16 μM of ADP-ribose and 2 or 5 Gy dose of radiation individually or in combination, and cultured for 24 hours under conditions of 37° C. and 5% CO2 again. Then, 10 μl of 3-(4,5-dimethylthiazol-2-yl)-2,5-diphenyltetrazolium bromide reagent was added to each well and reacted for 1 hour. After the reaction was completed, the reagent was removed, 200 μl of dimethyl sulfoxide was added to each well, and the absorbance was measured to confirm cell viability.

[3] = system: MDA-MB-231 cells; assay: as above; format: cell-based; conditions: MDA-MB-231, 16 μM ADP-ribose in combination with 2 Gy radiation, 24 hours, P<0.001; 2 Gy alone about 90.6%
Description: as §3
3×10^3 MDA-MB-231 cells were cultured in a 96-well plate for 24 hours under conditions of 37° C. and 5% CO2, treated with 16 μM of ADP-ribose and 2 or 5 Gy dose of radiation individually or in combination, and cultured for 24 hours under conditions of 37° C. and 5% CO2 again. Then, 10 μl of 3-(4,5-dimethylthiazol-2-yl)-2,5-diphenyltetrazolium bromide reagent was added to each well and reacted for 1 hour. After the reaction was completed, the reagent was removed, 200 μl of dimethyl sulfoxide was added to each well, and the absorbance was measured to confirm cell viability.

[4] = system: Kidney cancer (Caki-1) cells; assay: Xenograft model, combination with radiation, tumor volume; format: in vivo, BALB/c nude mice; conditions: Caki-1 xenograft
Description: (§1) Brain cancer (U-87MG), pancreatic cancer (AsPC-1), breast cancer (MDA-MB-231), or kidney cancer (Caki-1) cells (1×10^7 cells) were inoculated into 5-week-old BALB/c nude mice on the back flank, respectively. Then, when tumors were grown to a volume of approximately 150 mm^3, the mice were divided into three groups: the control group (Control), 2 Gy dose of radiation alone, and a combination administration of 2 Gy dose of radiation+10 mg/kg of ADP-ribose (subcutaneous administration, 3 times a week). The irradiation was performed with an X-Rad 320 irradiator (Precision X-ray, North Branford, CT, USA), wherein the mice were placed by maintaining an appropriate distance from the radiation source for irradiation with a predetermined radiation dose. A lead shield was used to protect the body parts or organs from exposure to radiation, other than the cancerous part of the mouse. The irradiation was performed with a total of 2 Gy of radiation fractionated into two doses of 1 Gy each (for 2 days) at a dose rate of 300 kVp and 150 cGy/min using an X-ray beam filter composed of 12.5 mA and 2.0 mm Al. The tumor size was measured every 6 days using a digital caliper, and the results of changes in tumor volume were compared by the group.
(§2) Kidney cancer (Caki-1) cells (1×10^7) were inoculated into 5-week-old BALB/c nude mice on the back flank, and the mice were divided into three groups: the control group (Control), 2 Gy dose of radiation alone, and combination administration of 2 Gy dose radiation+20 mg/kg of ADP-ribose. When the tumors were grown to a volume of approximately 150 mm^3, 2 Gy dose of radiation was irradiated twice at 1 Gy each, and 20 mg/kg of ADP-ribose was injected subcutaneously 3 times a week. The tumor size was measured using a digital caliper, and the results of changes in tumor volume were compared by the group.

[5] = system: Brain cancer (U-87MG) cells; assay: Xenograft model, combination with anti-cancer drug, tumor volume; format: in vivo, BALB/c nude mice; conditions: U-87MG xenograft
Description: Brain (U-87MG), lung (H1975), pancreatic (AsPC-1), or liver (Hep G2) cells (1×10^7 cells) were inoculated into 5-week-old BALB/c nude mice on the back flank, respectively. Then, when tumors were grown to a volume of approximately 150 mm^3, the mice were divided into the control group (control), an anti-cancer drug alone treatment group, and a combination treatment group. […] The tumor size was measured every 6 days using a digital caliper, and the results of changes in tumor volume were compared by the group.
Brain cancer (U-87MG) cells (1×10^7) were inoculated into 5-week-old BALB/c nude mice on the back flank, and the mice were divided into three groups: the control group (Control), single intraperitoneal administration of 25 mg/kg of Avastin (ingredient name: bevacizumab), and combination administration of Avastin+10 mg/kg of ADP-ribose. When the tumors were grown to a volume of approximately 150 mm^3, Avastin was administered intraperitoneally twice a week, and ADP-ribose at 10 mg/kg was injected subcutaneously 3 times a week. The tumor size was measured using a digital caliper, and the results of changes in tumor volume were compared by the group.

[6] = system: U-87MG cells; assay: Cell death by combination treatment of ADP-ribose and radiation (MTT); format: cell-based; conditions: 8 μM ADP-ribose in combination with 2 Gy radiation, 24 hours, P<0.001, 2 Gy alone about 88%
Description: 3×10^3 Brain cancer (U-87MG) cells were cultured in a 96-well plate for 24 hours under conditions of 37° C. and 5% CO2, treated with 8 μM of ADP-ribose and 2 or 5 Gy dose of radiation individually or in combination, and cultured for 24 hours under conditions of 37° C. and 5% CO2 again. Then, 10 μl of 3-(4,5-dimethylthiazol-2-yl)-2,5-diphenyltetrazolium bromide reagent was added to each well and reacted for 1 hour. After the reaction was completed, the reagent was removed, 200 μl of dimethyl sulfoxide was added to each well, and the absorbance was measured to confirm cell viability.

[7] = system: Brain cancer (U-87MG) cells; assay: Cell death by combination treatment with anti-cancer drug (MTT); format: cell-based; conditions: Homo sapiens, ADP-ribose 1.6 μM in combination with bevacizumab, 24 hours, P<0.001
Description: 3×10^3 Brain cancer (U-87MG), lung cancer (H1975), pancreatic cancer (Aspc-1), liver cancer (Hep G2), breast cancer (MDA-MB-231), and colon cancer (HCT116) cells were cultured in a 96-well plate for 24 hours under conditions of 37° C. and 5% Ca2, respectively. […] After the treatment was terminated, the cells were cultured for 24 hours under conditions of 37° C. and 5% CO2 again, 10 μl of 3-(4,5-dimethylthiazol-2-yl)-2,5-diphenyltetrazolium bromide reagent was added to each well and reacted for 1 hour. After the reaction was completed, the reagent was removed, 200 μl of dimethyl sulfoxide was added to each well, and the absorbance was measured to compare the degree of cell death.
3×10^3 Brain cancer (U-87MG) cells were cultured in a 96-well plate for 24 hours under conditions of 37° C. and 5% CO2, treated with ADP-ribose at a concentration of 1.6 μM and bevacizumab at 15 mM, individually or in combination, and cultured for 24 hours under conditions of 37° C. and 5% CO2 again. Then, 10 μl of 3-(4,5-dimethylthiazol-2-yl)-2,5-diphenyltetrazolium bromide reagent was added to each well and reacted for 1 hour. After the reaction was completed, the reagent was removed, 200 μl of dimethyl sulfoxide was added to each well, and the absorbance was measured to confirm cell viability.

[8] = system: Pancreatic cancer (AsPC-1) cells; assay: Xenograft model, combination with radiation, tumor volume; format: in vivo, BALB/c nude mice; conditions: AsPC-1 xenograft
Description: as §1
as §2, with “Pancreatic” for “Kidney”, “(AsPC-1)” for “(Caki-1)”, “radiation+10” for “radiation+20”, “10” for “20”

[9] = system: MDA-MB-231 cells; assay: ADP-ribose quantitative analysis (ELISA) in cancer cells; format: cell-based; conditions: 16 μM ADP-ribose, 24 hours, P<0.001
Description: After culturing, the culture medium was removed, the cells were washed with phosphate-buffered saline, and then RIPA buffer was added and the cells were left on ice for 20 minutes. After scraping the cells, the cells were put in a centrifuge tube and centrifuged for 10 minutes at 10,000 g and 4° C. The supernatant was obtained, and 1% SDS was added, and then the reaction product was boiled at 100° C. for 5 minutes and cooled on ice. The supernatant was centrifuged again at 10,000 g and 4° C. for 10 minutes to obtain the final supernatant, and ADP-ribose was quantitatively analyzed and compared using an ELISA analysis kit (Cell Biolabs, Inc., San Diego, CA, USA).
5×10^5 MDA-MB-231 cells were divided into the untreated group and 16 μM ADP-ribose-treated group and cultured in Leibovitz's L-15 medium supplemented with 10% fetal calf serum+100 units/ml penicillin+100 μg/ml streptomycin under conditions of 37° C. and 5% CO2 for 24 hours. The medium of the cultured cells was removed, and the supernatant prepared by treatment with RIPA buffer and 1% sodium dodecyl sulfate (SDS) was used for ELISA analysis to detect and analyze ADP-ribose.

[10] = system: Hep G2 cells; assay: Cancer cell death verification (MTT cell viability); format: cell-based
Description: 3×10^3 Brain cancer (U-87MG), lung cancer (H1975), pancreatic cancer (Aspc-1), liver cancer (Hep G2), breast cancer (MDA-MB-231), colon cancer (HCT116), kidney cancer (Caki-1), gastric cancer (SNU-1) and ovarian cancer (OVCAR-3) cells were cultured in a 96-well plate under conditions of 37° C. and 5% CO2 for 24 hours, and then each cancer cell was treated with ADP-ribose at each concentration. After culturing for 24 hours under conditions of 37° C. and 5% CO2 again, 10 μl of 3-(4,5-dimethylthiazol-2-yl)-2,5-diphenyltetrazolium bromide reagent was added to each well and reacted for 1 hour. After the reaction was completed, the reagent was removed, 200 μl of dimethyl sulfoxide was added to each well, and the absorbance was measured to determine the concentration of half-lethality and maximum lethality compared to untreated cells.
3×10^3 Hep G2 cells were cultured in a 96-well plate for 24 hours under conditions of 37° C. and 5% CO2, treated with ADP-ribose at concentrations of 0.125, 0.25, 0.5, 1, 2, 4, 8, 16, and 32 μM, respectively, and cultured again for 24 hours under conditions of 37° C. and 5% CO2. Then, 10 μl of 3-(4,5-dimethylthiazol-2-yl)-2,5-diphenyltetrazolium bromide reagent was added to each well and reacted for 1 hour. After the reaction was completed, the reagent was removed, 200 μl of dimethyl sulfoxide was added to each well, and the absorbance was measured to confirm cell viability.

[11] = ADP-ribose 20 mg/kg s.c. + 2 Gy radiation, P<0.001
[12] = ADP-ribose 10 mg/kg s.c. in combination with Avastin 25 mg/kg, P<0.001
[13] = ADP-ribose 10 mg/kg s.c. + 2 Gy radiation, P<0.001

## Nc1ncnc2c1ncn2[C@@H]1O[C@H](COP(=O)(O)OP(=O)(O)OC[C@H]2O[C@@H](O)C(O)C2O)C(O)C1O (stereo partly drawn) [ADP-ribose, adenosine diphosphate ribose]
[1]
  survival rate of cancer cells: about 7.3%
[2]
  survival rate of cancer cells: about 22.7%
[3]
  survival rate of cancer cells: about 11.3%
[4]; [11]
  reduction of tumor volume compared to the control group: about 70%
  reduction of tumor volume compared to the group treated with 2 Gy dose of radiation alone: about 68%
[4]; ADP-ribose 20 mg/kg subcutaneous 3 times a week + 2 Gy radiation, control about 2620.5, 2 Gy alone about 2454.5
  final tumor volume: about 786.4 mm^3
[5]; [12]
  reduction of tumor volume compared to the control group: about 87%
  reduction of tumor volume compared to the group treated with Avastin alone: about 79%
[5]; ADP-ribose 10 mg/kg subcutaneous 3 times a week in combination with Avastin 25 mg/kg, control about 2527.1
  final tumor volume: about 334.5 mm^3
[6]
  survival rate of cancer cells: about 12.3%
[7]
  viability at 1.6 µM: ~18%
[8]; [13]
  reduction of tumor volume compared to the control group: about 69.1%
  reduction of tumor volume compared to the group treated with 2 Gy dose of radiation alone: about 57.3%
[8]; ADP-ribose 10 mg/kg subcutaneous 3 times a week + 2 Gy radiation, control about 2384.3, 2 Gy alone about 1725.5
  final tumor volume: about 736.2 mm^3
[9]
  amount of ADP-ribose in cells compared to the control group: remarkably increased significantly
[10]; Hep G2, 24 hours, MTT
  maximum lethal dose (concentration at which almost all cells were killed): 32 µM
[10]; Hep G2, ADP-ribose treated vs control, FIG. 5A
  cancer cell growth under a microscope: inhibited from growing and killed
[10]; Homo sapiens, HepG2, 24 h, read-out: half-lethal dose (concentration at which about half of the cells were killed)
  IC50: ~4 µM
